{"source": "paper PMC6199744", "about": "“Development of Chemical Proteomics for the Folateome and Analysis of the Kinetoplastid Folateome” (ACS Infectious Diseases, 2018)", "format_in_all_cases": "binding", "key": {"[1]": {"biological_target": "T1, HeLa cell extract proteins (Homo sapiens, UniProt Q9Y5L0)", "T1 construct": "endogenous in cells; host or cells: HeLa cell extract", "T1 sequence (Q9Y5L0 1-923)": "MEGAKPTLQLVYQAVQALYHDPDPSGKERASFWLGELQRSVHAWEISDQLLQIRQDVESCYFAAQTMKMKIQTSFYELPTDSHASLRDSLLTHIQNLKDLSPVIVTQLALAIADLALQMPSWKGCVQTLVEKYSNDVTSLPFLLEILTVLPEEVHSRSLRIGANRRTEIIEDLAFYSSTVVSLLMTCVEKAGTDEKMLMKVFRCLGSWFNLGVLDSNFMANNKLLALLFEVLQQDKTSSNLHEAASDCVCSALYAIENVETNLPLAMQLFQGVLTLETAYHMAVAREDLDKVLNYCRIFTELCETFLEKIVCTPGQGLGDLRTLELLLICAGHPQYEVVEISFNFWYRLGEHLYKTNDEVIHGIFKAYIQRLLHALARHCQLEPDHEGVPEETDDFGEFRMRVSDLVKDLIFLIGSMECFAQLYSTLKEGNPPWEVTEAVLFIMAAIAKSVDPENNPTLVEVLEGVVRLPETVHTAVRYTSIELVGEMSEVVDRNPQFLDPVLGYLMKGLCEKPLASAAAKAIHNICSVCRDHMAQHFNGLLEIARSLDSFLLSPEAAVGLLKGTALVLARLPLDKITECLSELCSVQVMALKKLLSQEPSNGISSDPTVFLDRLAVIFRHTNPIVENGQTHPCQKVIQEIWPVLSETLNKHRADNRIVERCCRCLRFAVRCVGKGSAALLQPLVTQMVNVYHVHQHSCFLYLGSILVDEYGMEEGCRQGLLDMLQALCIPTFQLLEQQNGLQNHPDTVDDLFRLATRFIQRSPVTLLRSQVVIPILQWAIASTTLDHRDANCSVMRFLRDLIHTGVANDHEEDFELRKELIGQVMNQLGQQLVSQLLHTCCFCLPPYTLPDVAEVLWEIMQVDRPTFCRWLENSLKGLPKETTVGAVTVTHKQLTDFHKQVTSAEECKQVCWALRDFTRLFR"}, "[2]": {"biological_target": "T2, HeLa cell extract proteins (Homo sapiens, UniProt P63208)", "T2 construct": "endogenous in cells; host or cells: HeLa cell extract", "T2 sequence (P63208 whole entry)": "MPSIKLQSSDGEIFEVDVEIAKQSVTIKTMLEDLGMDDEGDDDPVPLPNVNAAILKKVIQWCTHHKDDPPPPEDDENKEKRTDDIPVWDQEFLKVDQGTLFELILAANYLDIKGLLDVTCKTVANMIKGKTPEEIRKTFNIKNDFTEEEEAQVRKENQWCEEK"}, "[3]": {"biological_target": "T3, HeLa cell extract proteins (Homo sapiens, UniProt O95218)", "T3 construct": "endogenous in cells; host or cells: HeLa cell extract", "T3 sequence (O95218 1-330)": "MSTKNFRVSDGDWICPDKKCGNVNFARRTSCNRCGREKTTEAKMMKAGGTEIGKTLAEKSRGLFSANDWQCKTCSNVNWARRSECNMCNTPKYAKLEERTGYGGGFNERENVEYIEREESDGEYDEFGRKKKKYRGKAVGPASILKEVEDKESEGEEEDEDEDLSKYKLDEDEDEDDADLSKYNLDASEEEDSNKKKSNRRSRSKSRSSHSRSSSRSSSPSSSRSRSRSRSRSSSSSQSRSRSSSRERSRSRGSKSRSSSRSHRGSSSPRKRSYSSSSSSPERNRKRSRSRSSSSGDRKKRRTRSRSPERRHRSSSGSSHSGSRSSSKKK"}, "[4]": {"biological_target": "T4, HeLa cell extract proteins (Homo sapiens, UniProt Q13200)", "T4 construct": "endogenous in cells; host or cells: HeLa cell extract", "T4 sequence (Q13200 whole entry)": "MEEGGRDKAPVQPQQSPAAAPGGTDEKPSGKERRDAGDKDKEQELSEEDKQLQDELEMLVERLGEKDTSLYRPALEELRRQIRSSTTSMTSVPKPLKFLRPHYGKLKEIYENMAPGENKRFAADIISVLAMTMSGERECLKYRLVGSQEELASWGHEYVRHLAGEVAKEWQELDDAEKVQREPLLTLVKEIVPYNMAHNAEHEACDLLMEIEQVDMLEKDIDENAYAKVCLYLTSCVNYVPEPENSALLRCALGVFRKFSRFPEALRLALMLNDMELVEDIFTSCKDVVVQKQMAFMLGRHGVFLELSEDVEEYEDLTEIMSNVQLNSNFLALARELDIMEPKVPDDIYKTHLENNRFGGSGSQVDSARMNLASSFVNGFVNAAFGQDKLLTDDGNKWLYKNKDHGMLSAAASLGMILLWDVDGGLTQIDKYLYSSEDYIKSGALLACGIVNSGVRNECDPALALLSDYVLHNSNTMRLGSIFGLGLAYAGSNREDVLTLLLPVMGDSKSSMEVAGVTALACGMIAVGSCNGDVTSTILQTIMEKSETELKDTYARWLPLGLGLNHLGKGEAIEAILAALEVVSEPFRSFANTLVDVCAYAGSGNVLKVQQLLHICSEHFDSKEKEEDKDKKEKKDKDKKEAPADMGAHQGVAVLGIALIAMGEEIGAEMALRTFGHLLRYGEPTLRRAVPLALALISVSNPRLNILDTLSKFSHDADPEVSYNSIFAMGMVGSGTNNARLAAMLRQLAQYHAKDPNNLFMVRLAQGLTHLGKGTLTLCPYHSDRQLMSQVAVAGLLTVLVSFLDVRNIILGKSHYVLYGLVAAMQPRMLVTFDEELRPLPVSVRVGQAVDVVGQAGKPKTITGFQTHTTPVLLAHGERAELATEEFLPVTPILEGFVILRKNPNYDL"}, "[5]": {"biological_target": "T5, HeLa cell extract proteins (Homo sapiens, UniProt P23921)", "T5 construct": "endogenous in cells; host or cells: HeLa cell extract", "T5 sequence (P23921 1-792)": "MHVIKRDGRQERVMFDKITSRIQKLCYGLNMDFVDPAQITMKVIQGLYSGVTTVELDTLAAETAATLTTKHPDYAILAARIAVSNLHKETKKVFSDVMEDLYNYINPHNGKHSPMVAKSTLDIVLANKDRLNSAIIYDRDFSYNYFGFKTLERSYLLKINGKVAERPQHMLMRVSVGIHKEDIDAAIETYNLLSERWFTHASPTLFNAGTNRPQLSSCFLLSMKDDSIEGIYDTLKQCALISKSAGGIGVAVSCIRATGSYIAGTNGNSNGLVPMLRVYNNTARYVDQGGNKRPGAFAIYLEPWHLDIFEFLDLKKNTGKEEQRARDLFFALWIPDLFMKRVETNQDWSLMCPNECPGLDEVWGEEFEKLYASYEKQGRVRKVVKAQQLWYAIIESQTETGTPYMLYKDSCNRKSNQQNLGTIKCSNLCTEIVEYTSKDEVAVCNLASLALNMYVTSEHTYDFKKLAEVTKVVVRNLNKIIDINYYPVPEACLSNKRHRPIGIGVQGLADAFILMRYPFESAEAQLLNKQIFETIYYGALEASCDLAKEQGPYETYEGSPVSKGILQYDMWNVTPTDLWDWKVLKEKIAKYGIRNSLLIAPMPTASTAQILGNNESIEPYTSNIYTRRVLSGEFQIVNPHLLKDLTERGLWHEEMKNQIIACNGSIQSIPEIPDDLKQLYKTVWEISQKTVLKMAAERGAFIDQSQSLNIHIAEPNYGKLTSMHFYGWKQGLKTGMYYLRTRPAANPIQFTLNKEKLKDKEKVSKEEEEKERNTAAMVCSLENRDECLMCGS"}, "[6]": {"biological_target": "T6, HeLa cell extract proteins (Homo sapiens, UniProt O75608)", "T6 construct": "endogenous in cells; host or cells: HeLa cell extract", "T6 sequence (O75608 whole entry)": "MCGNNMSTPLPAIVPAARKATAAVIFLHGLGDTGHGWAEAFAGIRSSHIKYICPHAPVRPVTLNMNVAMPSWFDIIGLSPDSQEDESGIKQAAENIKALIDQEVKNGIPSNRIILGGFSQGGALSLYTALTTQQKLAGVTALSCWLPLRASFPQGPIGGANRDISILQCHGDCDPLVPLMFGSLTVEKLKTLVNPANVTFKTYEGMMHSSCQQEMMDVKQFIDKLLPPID"}, "[7]": {"biological_target": "T7, HeLa cell extract proteins (Homo sapiens, UniProt P08579)", "T7 construct": "endogenous in cells; host or cells: HeLa cell extract", "T7 sequence (P08579 whole entry)": "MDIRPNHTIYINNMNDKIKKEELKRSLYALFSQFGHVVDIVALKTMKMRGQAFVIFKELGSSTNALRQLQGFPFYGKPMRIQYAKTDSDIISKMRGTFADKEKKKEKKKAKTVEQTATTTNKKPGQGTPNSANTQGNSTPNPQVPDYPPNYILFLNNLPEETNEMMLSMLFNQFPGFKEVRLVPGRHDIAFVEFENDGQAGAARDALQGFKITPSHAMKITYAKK"}, "[8]": {"biological_target": "T8, HeLa cell extract proteins (Homo sapiens, UniProt O14744)", "T8 construct": "endogenous in cells; host or cells: HeLa cell extract", "T8 sequence (O14744 whole entry)": "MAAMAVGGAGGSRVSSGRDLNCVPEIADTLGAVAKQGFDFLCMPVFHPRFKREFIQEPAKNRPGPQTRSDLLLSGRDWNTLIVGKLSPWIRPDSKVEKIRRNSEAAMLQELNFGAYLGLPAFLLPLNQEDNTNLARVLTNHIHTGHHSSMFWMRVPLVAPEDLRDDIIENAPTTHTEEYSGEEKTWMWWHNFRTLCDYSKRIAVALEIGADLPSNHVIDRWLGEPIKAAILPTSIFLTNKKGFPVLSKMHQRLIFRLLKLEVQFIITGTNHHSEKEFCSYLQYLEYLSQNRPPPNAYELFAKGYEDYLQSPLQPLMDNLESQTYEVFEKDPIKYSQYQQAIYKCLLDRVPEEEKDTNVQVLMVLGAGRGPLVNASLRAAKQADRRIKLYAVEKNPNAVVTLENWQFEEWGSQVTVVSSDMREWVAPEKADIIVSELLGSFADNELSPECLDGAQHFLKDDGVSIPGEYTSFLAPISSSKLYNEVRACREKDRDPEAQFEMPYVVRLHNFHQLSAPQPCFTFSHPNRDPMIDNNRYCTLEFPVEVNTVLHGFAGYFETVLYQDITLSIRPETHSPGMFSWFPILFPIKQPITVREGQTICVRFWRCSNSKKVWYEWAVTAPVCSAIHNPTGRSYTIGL"}}, "note": "Where two headings read alike, the source gives them in different places.", "data": [{"compound": "Nc1nc2cccc(-c3ccccc3)c2n1Cc1ccc(Cl)c(Cl)c1", "note": "[compound 3]", "values": [{"measurement": "fold changes relative to vehicle control", "setting": "[1]; HeLa, protein TNPO3", "value": 1.01}, {"measurement": "fold changes relative to vehicle control", "setting": "[2]; captured protein SKP1, HeLa", "value": 0.87}, {"measurement": "fold changes relative to vehicle control", "setting": "[3]; HeLa, protein ZRANB2", "value": 0.98}, {"measurement": "fold changes relative to vehicle control", "setting": "[4]; protein PSMD2, HeLa", "value": 1.01}, {"measurement": "fold changes relative to vehicle control", "setting": "[5]; protein RRM1, HeLa", "value": 0.89}, {"measurement": "fold changes relative to vehicle control", "setting": "[6]; HeLa, protein LYPLA1", "value": 0.71}, {"measurement": "fold changes relative to vehicle control", "setting": "[7]; HeLa, protein SNRPB2", "value": 0.76}, {"measurement": "fold changes relative to vehicle control", "setting": "[8]; protein PRMT5, HeLa", "value": 0.85}]}, {"compound": "CCCCCCOc1ccc(Cc2cnc(N)nc2N)cc1", "note": "[compound 1]", "values": [{"measurement": "fold changes relative to vehicle control", "setting": "[1]; HeLa, protein TNPO3", "value": 0.93}, {"measurement": "fold changes relative to vehicle control", "setting": "[2]; captured protein SKP1, HeLa", "value": 1.04}, {"measurement": "fold changes relative to vehicle control", "setting": "[3]; HeLa, protein ZRANB2", "value": 1.04}, {"measurement": "fold changes relative to vehicle control", "setting": "[4]; protein PSMD2, HeLa", "value": 0.98}, {"measurement": "fold changes relative to vehicle control", "setting": "[5]; protein RRM1, HeLa", "value": 1.05}, {"measurement": "fold changes relative to vehicle control", "setting": "[6]; HeLa, protein LYPLA1", "value": 0.92}, {"measurement": "fold changes relative to vehicle control", "setting": "[7]; HeLa, protein SNRPB2", "value": 1.22}, {"measurement": "fold changes relative to vehicle control", "setting": "[8]; protein PRMT5, HeLa", "value": 0.93}]}, {"compound": "NCCCNc1ccc(C(=O)NC(CCC(=O)O)C(=O)O)cc1", "note": "(centres unmarked) [compound 7]", "values": [{"measurement": "fold changes relative to vehicle control", "setting": "[1]; HeLa, captured protein TNPO3", "value": 0.96}, {"measurement": "fold changes relative to vehicle control", "setting": "[2]; HeLa, captured protein SKP1", "value": 1.01}, {"measurement": "fold changes relative to vehicle control", "setting": "[3]; protein ZRANB2, HeLa", "value": 0.77}, {"measurement": "fold changes relative to vehicle control", "setting": "[4]; protein PSMD2, HeLa", "value": 0.99}, {"measurement": "fold changes relative to vehicle control", "setting": "[5]; HeLa, protein RRM1", "value": 0.96}, {"measurement": "fold changes relative to vehicle control", "setting": "[6]; HeLa, captured protein LYPLA1", "value": 0.92}, {"measurement": "fold changes relative to vehicle control", "setting": "[7]; HeLa, protein SNRPB2", "value": 0.77}, {"measurement": "fold changes relative to vehicle control", "setting": "[8]; protein PRMT5, HeLa", "value": 1.05}]}, {"compound": "CCCCCCOc1cccc(Cc2cnc(N)nc2N)c1", "note": "[compound 2]", "values": [{"measurement": "fold changes relative to vehicle control", "setting": "[1]; HeLa, protein TNPO3", "value": 0.9}, {"measurement": "fold changes relative to vehicle control", "setting": "[2]; captured protein SKP1, HeLa", "value": 1.21}, {"measurement": "fold changes relative to vehicle control", "setting": "[3]; HeLa, protein ZRANB2", "value": 1.23}, {"measurement": "fold changes relative to vehicle control", "setting": "[4]; protein PSMD2, HeLa", "value": 1.41}, {"measurement": "fold changes relative to vehicle control", "setting": "[5]; protein RRM1, HeLa", "value": 1.29}, {"measurement": "fold changes relative to vehicle control", "setting": "[6]; HeLa, protein LYPLA1", "value": 1.1}, {"measurement": "fold changes relative to vehicle control", "setting": "[7]; HeLa, protein SNRPB2", "value": 1.43}, {"measurement": "fold changes relative to vehicle control", "setting": "[8]; protein PRMT5, HeLa", "value": 1.12}]}, {"compound": "NCCOCCOCC(=O)Nc1nc2ncc(CNc3ccc(C(=O)NC(CCC(=O)O)C(=O)O)cc3)nc2c(=O)[nH]1", "note": "(centres unmarked) [compound 6]", "values": [{"measurement": "fold changes relative to vehicle control", "setting": "[1]; HeLa, captured protein TNPO3", "value": 1.04}, {"measurement": "fold changes relative to vehicle control", "setting": "[2]; HeLa, captured protein SKP1", "value": 0.97}, {"measurement": "fold changes relative to vehicle control", "setting": "[3]; protein ZRANB2, HeLa", "value": 0.95}, {"measurement": "fold changes relative to vehicle control", "setting": "[4]; protein PSMD2, HeLa", "value": 1.01}, {"measurement": "fold changes relative to vehicle control", "setting": "[5]; HeLa, protein RRM1", "value": 1.06}, {"measurement": "fold changes relative to vehicle control", "setting": "[6]; HeLa, captured protein LYPLA1", "value": 0.98}, {"measurement": "fold changes relative to vehicle control", "setting": "[7]; HeLa, protein SNRPB2", "value": 0.93}, {"measurement": "fold changes relative to vehicle control", "setting": "[8]; protein PRMT5, HeLa", "value": 1.21}]}, {"compound": "Nc1nc2[nH]cc(CCc3ccc(C(=O)N[C@@H](CCC(=O)O)C(=O)O)cc3)c2c(=O)[nH]1", "note": "[PTX, pemetrexed]", "values": [{"measurement": "fold changes relative to vehicle control", "setting": "[1]", "value": 0.96}, {"measurement": "fold changes relative to vehicle control", "setting": "[2]", "value": 1.13}, {"measurement": "fold changes relative to vehicle control", "setting": "[3]", "value": 0.87}, {"measurement": "fold changes relative to vehicle control", "setting": "[4]", "value": 0.83}, {"measurement": "fold changes relative to vehicle control", "setting": "[5]", "value": 1.05}, {"measurement": "fold changes relative to vehicle control", "setting": "[6]", "value": 0.93}, {"measurement": "fold changes relative to vehicle control", "setting": "[7]", "value": 0.98}, {"measurement": "fold changes relative to vehicle control", "setting": "[8]", "value": 0.99}]}, {"compound": "Nc1nc2c(c(=O)[nH]1)N(C=O)C(CNc1ccc(C(=O)N[C@@H](CCC(=O)O)C(=O)O)cc1)CN2", "note": "(some centres unmarked) [LEU, leucovorin]", "values": [{"measurement": "fold changes relative to vehicle control", "setting": "[1]; HeLa, captured protein TNPO3", "value": 0.95}, {"measurement": "fold changes relative to vehicle control", "setting": "[2]; HeLa, captured protein SKP1", "value": 1.09}, {"measurement": "fold changes relative to vehicle control", "setting": "[3]; protein ZRANB2, HeLa", "value": 0.82}, {"measurement": "fold changes relative to vehicle control", "setting": "[4]; protein PSMD2, HeLa", "value": 0.84}, {"measurement": "fold changes relative to vehicle control", "setting": "[5]; HeLa, protein RRM1", "value": 0.99}, {"measurement": "fold changes relative to vehicle control", "setting": "[6]; HeLa, captured protein LYPLA1", "value": 0.89}, {"measurement": "fold changes relative to vehicle control", "setting": "[7]; HeLa, protein SNRPB2", "value": 1}, {"measurement": "fold changes relative to vehicle control", "setting": "[8]; protein PRMT5, HeLa", "value": 0.96}]}]}
